Primed or numbered codes have the meaning given here. No end group written: not given here. *: point of attachment. Biotin = O=C1N[C@H]2[C@H](CS[C@H]2CCCCC(=O)*)N1; Biotin′ = not defined here

The first assay concerns VEGF-D neutralizing monoclonal antibody mAb 4A5 (VDnmAb). In words: ELISA of biotinylated synthetic peptides on streptavidin plates for VDnmAb binding. As to conditions: 2nd peptide library; 10 pmol peptide; VDnmAb 2 μg/ml; signal more than two-fold greater than background considered positive. The text has this: Peptides. A series of synthetic 15-mer peptides (peptides 1 to 35, SEQ ID NOs: 4 to 38 in FIG. 4B, which overlap each other by 12 amino acids) were synthesized (Mimotopes Pty Ltd, Melbourne, Australia). The peptides encompassed the VHD of human VEGF-D (SEQ ID NO: 3, FIG. 4A). Peptide 36 (SEQ ID NO: 39) represented an artificial sequence including a FLAG tag as a positive control for a commercial anti-FLAG mAb (M2; Sigma) that was used as control for non-specific binding to peptides 1 to 35 (SEQ ID NOs: 4 to 38). Biotin was included at the N-terminal of each peptide during synthesis, except that peptide 1 (SEQ ID NO: 4, representing the N-terminal of the VHD) has biotin at the C-terminal. The four-amino acid linker “SGSG” was introduced between the N-terminal of each peptide sequence and biotin to provide more flexibility to peptides after immobilization on streptavidin plates, except peptide 1 (SEQ ID NO: 4) that included the C-terminal linker “GSG”.
ELISA. Reacti-Bind streptavidin high-binding-capacity coated plates (Pierce) were coated with 10 pmol of each peptide in PBS, blocked with 5% milk in PBS-0.1% Tween 20, and incubated with 100 μl of VEGF-D neutralizing monoclonal antibody mAb 4A5 (referred to herein as VDnmAb) or M2 at 2 μg/ml for 1 h at room temperature. Bound mAb was detected with goat anti-mouse IgG coupled with HRP. ABTS was used as the substrate, and the absorbance was read at 405 nm in a multiwell plate reader.
In this 2nd peptide library, biotin was included at the N-terminal of each peptide, and the four-amino acid linker “SGSG” was introduced between each peptide sequence and the biotin residue to provide more flexibility to peptides after immobilization on streptavidin plates. ELISA-based analysis of the 2nd peptide library was carried out as for the 1st peptide library.
Peptide 67 (SEQ ID NO: 141, the same as peptide 36, SEQ ID NO: 39 from the 1st library) and peptide 68 (SEQ ID NO: 142), both containing the FLAG tag, were used as controls. In this 3rd peptide library, biotin was included at the N-terminal of each peptide except peptides 6, 12 and 14 (SEQ ID NOs: 80, 86 and 88) which have C-terminal biotin residues. To provide more flexibility to peptides after immobilization on streptavidin plates, an amino acid linker was introduced between biotin residues and the peptide sequence: “SGSG” for N-terminal biotin; “SGS” for C-terminal biotin. ELISA-based analysis of the 3rd peptide library was carried out as for the 1st peptide library, described in Example 1.
In general terms: An ELISA detects its analyte on a solid surface through an enzyme-linked reagent.
As to “peptide 26 (SEQ ID NO: 65): 2nd library: mutation of two of the cysteine residues to serine (SGSGVNVFRSGGSCNEESL)”, the “VDnmAb binding to peptide (ELISA signal, absorbance at 405 nm)” value (“VDnmAb binding to peptide” for short) was “more effect”.
Take “VPLMRCGGCCNDEGL (Biotin-SGSGVPLMRCGGCCNDEGL; not fully specified; cysteine pairing not given here) [peptide 33 (SEQ ID NO: 72), residues 78 to 92 of VEGF-A, biotin and linker]”: the “VDnmAb binding to peptide” value was “did not bind the antibody”.
As for “peptide 27 (SEQ ID NO: 66): 2nd library: mutation of two of the cysteine residues to serine (SGSGVNVFRSGGCSNEESL)”, the “VDnmAb binding to peptide” value is “more effect”.
Same read-out and setting: the value for “VSLLRCTGCCGDENL (Biotin-SGSGVSLLRCTGCCGDENL; not fully specified; cysteine pairing not given here) [peptide 35 (SEQ ID NO: 74), residues 78 to 92 of PlGF, biotin and linker]” was “did not bind the antibody”.

The same assay, now with this note: 3rd peptide library; 10 pmol peptide; VDnmAb 2 μg/ml; signal more than two-fold over background considered positive.
Turning to “peptide 59 (SEQ ID NO: 133): 3rd library: simultaneous changes of most of residues 142 to 146 to alanine (SGSGNVFAAGAAANEESL)”, the “VDnmAb binding to peptide” value was “loss, but not complete loss, of binding”.
On the same count and under the same terms, the value for “peptide 33 (SEQ ID NO: 107): 3rd library: variant with deletion of one of N147, E148, E149, S150 (SGSGVFRCGGCCNSL)” was “loss of VDnmAb binding”.
“peptide 9 (SEQ ID NO: 83): 3rd library: mutation V139L (SGSGLFRCGGCCNEESL)”: the “VDnmAb binding to peptide” value is listed as “little or no effect on VDnmAb binding”.
As to “GGCCNEESL (SGSGGGCCNEESL) [peptide 16 (SEQ ID NO: 90)]”, the “VDnmAb binding to peptide” value is recorded as “positive”.
Still for that read-out and setting: in the case of “peptide 18 (SEQ ID NO: 92): 3rd library: mutation F140A (SGSGVARCGGCCNEESL)” it was “little or no effect on VDnmAb binding”.
Same read-out and setting: in the case of “peptide 28 (SEQ ID NO: 102): 3rd library: variant with deletion of one of N147, E148, E149, S150 (SGSGVFRCGGCCNESL)” it was “loss of VDnmAb binding”; in that of “peptide 32 (SEQ ID NO: 106): 3rd library: double mutation E148A/E149A (SGSGVFRCGGCCNAASL)”, “loss, even complete loss, of VDnmAb binding”; in that of “peptide 26 (SEQ ID NO: 100): 3rd library: mutation E148D (SGSGVFRCGGCCNDESL)”, “loss, even complete loss, of VDnmAb binding”.
As for “peptide 58 (SEQ ID NO: 132): 3rd library: deletion of most of the cysteine and glycine residues at positions 142 to 146 (Biotin-SGSGNVFNEESL)”, the “VDnmAb binding to peptide” value is reported as “loss, but not complete loss, of binding”.
Still for that read-out and setting: the value for “peptide 25 (SEQ ID NO: 99): 3rd library: variant with deletion of one of N147, E148, E149, S150 (SGSGVFRCGGCCEESL)” was “loss of VDnmAb binding”; that for “VFRCGGCCNEESL (VFRCGGCCNEESLSGS-{Biotin′}; cysteine pairing not given here) [peptide 6 (SEQ ID NO: 80)]” was “decreases in VDnmAb binding”.
The same measure, in the same setting: in the case of “peptide 7 (SEQ ID NO: 81): 3rd library: mutation of residue 151 to valine (SGSGVFRCGGCCNEESV)” it was “decreased VDnmAb binding”.

(Values after US20110305703A1, “ISOLATED VEGF-C AND VEGF-D PEPTIDES AND USES THEREOF” (Vegenics Pty Limited, priority 2008, published 2011).)
